Where two headings read alike, the source gives them in different places.
How the values were obtained:
[1] = test system: H3K9me2 in MDA-MB-231 cells; test: MDA-MB-231 H3K9me2 in-cell western assay (EHMT2 ICW); type: cell-based; conditions: Homo sapiens
Description: MDA-MB-231 cell line was purchased from ATCC (Manassas, Va., USA). RPMI/Glutamax medium, Penicillin-Streptomycin, Heat Inactivated Fetal Bovine Serum, and D-PBS were purchased from Life Technologies (Grand Island, N.Y., USA). Odyssey blocking buffer, 800 CW goat anti-mouse IgG (H+L) antibody, and Licor Odyssey Infrared Scanner were purchased from Licor Biosciences, Lincoln, Nebr., USA. H3K9me2 mouse monoclonal antibody (Cat #1220) was purchased from Abcam (Cambridge, Mass., USA). 16% Paraformaldehyde was purchased from Electron Microscopy Sciences, Hatfield, Pa., USA). MDA-MB-231 cells were maintained in complete growth medium (RPMI supplemented with 10% v/v heat inactivated fetal bovine serum) and cultured at 37° C. under 5% C02. UNC0638 was purchased from Sigma-Aldrich (St. Louis, Mo., USA).
General Procedure for MDA-MB-231 HEK9me2 in-Cell Western Assay.
Compound (100 nL) was added directly to 384-well cell plate. MDA-MB-231 cells (ATCC) were seeded in assay medium (RPMI/Glutamax supplemented with 10% v/v heat inactivated fetal bovine serum and 1% Penicillin/Streptomycin, Life Technologies) at a concentration of 3,000 cells per well to a Poly-D-Lysine coated 384-well cell culture plate with 50 μL per well. Plates were incubated at 37° C., 5% CO2 for 48 hours (BD Biosciences 356697). […] After the incubation, 50 μL per well of 8% paraformaldehyde (Electron Microscopy Sciences) in PBS was added to the plates and incubated at room temperature for 20 minutes. Plates were transferred to a Biotek 406 plate washer and washed 2 times with 100 μL per well of wash buffer (1×PBS containing 0.3% Triton X-100 (v/v)). Next, 60 μL per well of Odyssey blocking buffer (Licor Biosciences) was added to each plate and incubated for 1 hour at room temperature. Blocking buffer was removed and 20 μL of monoclonal primary antibody α-H3K9me2 (Abcam) diluted 1:800 in Odyssey buffer with 0.1% Tween 20 (v/v) were added and plates were incubated overnight (16 hours) at 4° C. Plates were washed 5 times with 100 μL per well of wash buffer. Next 20 μL per well of secondary antibody was added (1:500 800 CW donkey anti-mouse IgG (H+L) antibody (Licor Biosciences), 1:1000 DRAQ5 (Cell Signaling Technology) in Odyssey buffer with 0.1% Tween 20 (v/v)) and incubated for 1 hour at room temperature. The plates were washed 5 times with 100 μL per well wash buffer then 2 times with 100 μL per well of water. Plates were allowed to dry at room temperature then imaged on a Licor Odyssey Infrared Scanner (Licor Biosciences) which measured integrated intensity at 700 nm and 800 nm wavelengths. Both 700 and 800 channels were scanned.
First, the ratio for each well was determined by:
Each plate included fourteen control wells of DMSO only treatment (Minimum Inhibition) as well as fourteen control wells (background wells) for maximum inhibition treated with control compound UNC0638 (Background wells).
The average of the ratio values for each well was calculated and used to determine the percent inhibition for each test well in the plate. Control compound was serially diluted three-fold in DMSO for a total of 10 test concentrations beginning at 1 μM. Percent inhibition was calculated as: […]
IC50 curves were generated using triplicate wells per concentration of compound. The IC50 is the concentration of compound at which measured methylation is inhibited by 50% as interpolated from the dose response curves. IC50 values were calculated using a non-linear regression (variable slope-four parameter fit model) with by the following formula:
where Top is fixed at 100% and Bottom is fixed to 0%, [I]=concentration of inhibitor, IC50=half maximal inhibitory concentration and n=Hill Slope.

human EHMT2 913-1193 = molecular target: T1, human EHMT2 913-1193 (Homo sapiens, UniProt Q96KQ7); test: EHMT2 enzyme assay on histone peptide substrate; type: biochemical; conditions: histone H3 1-15 peptide, balanced conditions
T1 construct: recombinant purified human EHMT2 913-1193, Viva; purchased Viva
T1 sequence (Q96KQ7 913-1193): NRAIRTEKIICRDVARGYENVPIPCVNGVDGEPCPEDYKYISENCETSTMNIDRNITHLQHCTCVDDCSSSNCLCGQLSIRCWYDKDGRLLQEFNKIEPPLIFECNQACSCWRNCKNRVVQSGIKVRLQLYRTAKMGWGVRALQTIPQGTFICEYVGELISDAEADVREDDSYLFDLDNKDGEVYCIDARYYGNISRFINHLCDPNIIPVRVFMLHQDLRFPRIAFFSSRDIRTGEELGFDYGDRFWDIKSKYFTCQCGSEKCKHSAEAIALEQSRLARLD
Description: Recombinant purified human EHMT2 913-1193 ([…]) synthesized by Viva was used for all experiments. Biotinylated histone peptides were synthesized by Biopeptide and HPLC-purified to >95% purity. Streptavidin Flashplates and seals were purchased from PerkinElmer and 384 Well V-bottom Polypropylene Plates were from Greiner. ^3H-labeled S-adenosylmethionine (^3H-SAM) was obtained from American Radiolabeled Chemicals with a specific activity of 80 Ci/mmol. Unlabeled SAM and S-adenosylhomocysteine (SAH) were obtained from American Radiolabeled Chemicals and Sigma-Aldrich respectively. Flashplates were washed in a Biotek ELx-405 with 0.1% Tween. 384-well Flashplates and 96-well filter binding plates were read on a TopCount microplate reader (PerkinElmer). Compound serial dilutions were performed on a Freedom EVO (Tecan) and spotted into assay plates using a Thermo Scientific Matrix PlateMate (Thermo Scientific). Reagent cocktails were added by Multidrop Combi (Thermo Scientific).
10-point curves of test compounds were made on a Freedom EVO (Tecan) using serial 3-fold dilutions in DMSO, beginning at 2.5 mM (final top concentration of compound was […] and the DMSO was 2%). A 1 μL aliquot of the inhibitor dilution series was spotted in a polypropylene 384-well V-bottom plate (Greiner) using a Thermo Scientific Matrix PlateMate (Thermo Scientific). The 100% inhibition control consisted of 1 mM final concentration of the product inhibitor S-adenosylhomocysteine (SAH, Sigma-Aldrich). Compounds were incubated for 30 minutes with 40 μL per well of 0.031 nM EHMT2 (recombinant purified human EHMT2 913-1193, Viva) in 1× assay buffer (20 mM Bicine [pH 7.5], 0.002% Tween 20, 0.005% Bovine Skin Gelatin and 1 mM TCEP). 10 μL per well of substrate mix comprising assay buffer, ^3H-SAM (^3H-labeled S-adenosylmethionine, American Radiolabeled Chemicals, specific activity of 80 Ci/mmol), unlabeled SAM (American Radiolabeled Chemicals), and peptide representing histone H3 residues 1-15 containing C-terminal biotin (appended to a C-terminal amide-capped lysine, synthesized by Biopeptide and HPLC-purified to greater than 95% purity) were added to initiate the reaction (both substrates were present in the final reaction mixture at their respective Km values, an assay format referred to as “balanced conditions”). Reactions were incubated for 60 minutes at room temperature and quenched with 10 μL per well of 400 μM unlabeled SAM, then transferred to a 384-well streptavidin Flashplate (PerkinElmer) and washed in a Biotek ELx-405 well washer with 0.1% Tween after 60 minutes. 384-well Flashplates were read on a TopCount microplate reader (PerkinElmer).

[2] = Table 3A, read-out: ICW (IC50 μM)
[3] = Table 3A, read-out: EHMT2 (IC50 μM)
[4] = Table 3, read-out: EHMT2 ICW (IC50 μM)
[5] = Table 3, read-out: EHMT2 PEP (IC50 μM)

SMILES	IC50 [1, 2] [µM]	IC50 (human EHMT2 913-1193; [3]) [µM]	IC50 [1, 4] [µM]	IC50 (human EHMT2 913-1193; [5]) [µM]
CNCc1cn(-c2c(OC)ccc(Nc3nc(C)cc(NC)n3)c2F)nn1 [Compound A3, N2-(2-fluoro-4-methoxy-3-[4-[(methylamino)methyl]-1H-1,2,3-triazol-1-yl]phenyl)-N4,6-dimethylpyrimidine-2,4-diamine]	0.01 to 0.1	0.01 to 0.1		
CNc1cc(C)nc(Nc2ccc(OC)c(CNC[C@@H](C)N3CCCC3)c2)n1 [Compound 42]			1 to 10	0.1 to 1
CNc1cc(C)nc(Nc2ccc(OC)c(CNCCN3CC[C@@H](C)C3)c2)n1 [Compound 38]			> 10	1 to 10
CNCc1cn(-c2cc3c(cc2Cl)C2(CCC2)C(N)=N3)nn1 [Compound A15, 5′-chloro-6′-(4-((methylamino)methyl)-1H-1,2,3-triazol-1-yl)spiro[cyclobutane-1,3′-indol]-2′-amine]	0.1 to 1	0.01 to 0.1		
CNc1cc(C)nc(Nc2ccc(OC)c(CNC[C@H](C)N3CCCC3)c2)n1 [Compound 43]			> 10	> 10
CNc1cc(C)nc(Nc2ccc(OC)c(C#CC[N+](C)(C)CCN)c2)n1 [Compound 45]			> 10	> 10
CNc1cc(C)nc(Nc2ccc(Cl)c(C(=O)NCC3COC3)c2)n1 [Compound 2, 2-chloro-5-[[4-methyl-6-(methylamino)pyrimidin-2-yl]amino]-N-(oxetan-3-ylmethyl)benzamide]			> 10	> 10
CNCc1cc(-c2c(OC)ccc(Nc3nc(C)cc(NC)n3)c2F)no1 [Compound A14, N2-(2-fluoro-4-methoxy-3-[5-[(methylamino)methyl]-1,2-oxazol-3-yl]phenyl)-N4,6-dimethylpyrimidine-2,4-diamine]	0.1 to 1	0.01 to 0.1		
CNc1cc(C)nc(Nc2ccc(Cl)c(C(=O)NCC3CCC3)c2)n1 [Compound 3]			> 10	1 to 10
CNc1cc(C)nc(Nc2ccc(Cl)c(C(=O)Nc3ncco3)c2)n1 [Compound 6]			1 to 10	1 to 10
CNCc1cn(-c2cc(Nc3nc(C)cc(NC)n3)ccc2Cl)nn1 [Compound A1]	0.01 to 0.1	< 0.01		
CNCc1cnn(-c2c(OC)ccc(Nc3nc(NC)cc(C(C)C)n3)c2F)c1 [Compound A8, N^2-(2-fluoro-4-methoxy-3-[4-[(methylamino)methyl]-1H-pyrazol-1-yl]phenyl)-N^4-methyl-6-(propan-2-yl)pyrimidine-2,4-diamine]	0.01 to 0.1	0.01 to 0.1		
CNc1cc(C)nc(Nc2ccc(Cl)c(-n3cc(CN)cn3)c2Cl)n1 [Compound A6]	0.01 to 0.1	< 0.01		
CNC1=Nc2cc(-n3cc(CN4CCC4)cn3)c(Cl)cc2C12CCC2 [Compound A17, 6′-(4-(azetidin-1-ylmethyl)-1H-pyrazol-1-yl)-5′-chloro-N-methylspiro[cyclobutane-1,3′-indol]-2′-amine]	0.1 to 1	0.01 to 0.1		
CNC1=Nc2cc(-c3cc4n(n3)CCNC4)c(Cl)cc2C12CCC2 [Compound A10, 5′-chloro-N-methyl-6′-(4,5,6,7-tetrahydropyrazolo[1,5-a]pyrazin-2-yl)spiro[cyclobutane-1,3′-indol]-2′-amine]	> 1	0.1 to 1		
CNC1=Nc2cc(-c3cc4n(n3)CCN(C)C4)c(Cl)cc2C12CCC2 [Compound A12, 5′-chloro-N-methyl-6′-(5-methyl-4,5,6,7-tetrahydropyrazolo[1,5-a]145yrazine-2-yl)spiro[cyclobutane-1,3′-indol]-2′-amine]	> 1	> 1		
CCCCNC(=O)c1cc(Nc2nc(C)cc(NC)n2)ccc1Cl [Compound 9]			1 to 10	1 to 10
CNc1cc(C)nc(Nc2ccc(Cl)c(C(=O)Nc3cocn3)c2)n1 [Compound 14, 2-chloro-5-[[4-methyl-6-(methylamino)pyrimidin-2-yl]amino]-N-(1,3-oxazol-4-yl)benzamide]			> 10	> 10
CNC1=Nc2cc(-n3cc([C@@H]4CCCN4)nn3)c(Cl)cc2C12CCC2 [Compound A2S, (S)-5′-chloro-N-methyl-6′-(4-(pyrrolidin-2-yl)-1H-1,2,3-triazol-1-yl)spiro[cyclobutane-1,3′-indol]-2′-amine]	> 1	0.1 to 1		
CNc1cc(C)nc(Nc2ccc(Cl)c(C(=O)Nc3cscn3)c2)n1 [Compound 13]			1 to 10	1 to 10
CNc1cc(C)nc(Nc2ccc(C)c(C(=O)Nc3cc(C#N)ccn3)c2)n1 [Compound 30]			> 10	> 10
CNc1cc(C)nc(Nc2ccc(OC)c(CN[C@H](C)CN3CCCC3)c2)n1 [Compound 48]			1 to 10	1 to 10
CNc1cc(C)nc(Nc2ccc(OC)c(CNCCN3CC(C)C3)c2)n1 [Compound 35]			> 10	> 10
CNc1cc(C)nc(Nc2ccc(C)c(C(=O)Nc3c[nH]cn3)c2)n1 [Compound 37]			> 10	1 to 10
CNc1cc(C)nc(Nc2ccc(C3CC3)c(CNCCN3CCCC3)c2)n1 [Compound 11, 2-N-[4-cyclopropyl-3-([[2-(pyrrolidin-1-yl)ethyl]amino]methyl)phenyl]-4-N,6-dimethylpyrimidine-2,4-diamine]			1 to 10	0.1 to 1

— patent US20200317642A1, “AMINE-SUBSTITUTED HETEROCYCLIC COMPOUNDS AS EHMT2 INHIBITORS AND DERIVATIVES THEREOF” (Epizyme, Inc., priority 2017, published 2020)
